Test results published in US9447449B2, “Recombinant mycobacteriophages for delivery of nucleic acids of interest into mycobacteria” (Albert Einstein College of Medicine of Yeshiva University, priority 2011, dated 2016).

Tested on: M. tuberculosis mc^26230
Assay type: cell-based

Structure (SMILES)	fluorescence of the M. tuberculosis cells diminished by	MFI relative to untreated control	average fluorescence decreased by	effect of 18 hr pre-treatment prior to phage addition on DST signal	six hour pre-incubation to determine drug sensitivity
CO[C@H]1/C=C/O[C@@]2(C)Oc3c(C)c(O)c4c(O)c(c(/C=N/N5CCN(C)CC5)c(O)c4c3C2=O)NC(=O)/C(C)=C\C=C\[C@H](C)[C@H](O)[C@@H](C)[C@@H](O)[C@@H](C)[C@H](OC(C)=O)[C@@H]1C [rifampicin]	approximately 85%				
NNC(=O)c1ccncc1 [isoniazid]		lower than the untreated control	64%	increased the difference between treated and non-treated samples	not sufficient
NC[C@H]1O[C@H](O[C@H]2[C@H](O)[C@@H](O[C@H]3O[C@H](CO)[C@@H](O)[C@H](N)[C@H]3O)[C@H](N)C[C@@H]2N)[C@H](O)[C@@H](O)[C@@H]1O [kanamycin]	approximately 85%				
